Key:
Assay type in all cases: biochemical
Sfp [1] = target: T1, Sfp (Bacillus subtilis, UniProt P39135); test: FRET phosphopantetheinyl transferase assay with purified enzyme
AcpS [2] = target: T2, AcpS (Escherichia coli, UniProt P24224); test: as above
Sfp [3] = target: T1, Sfp; test: HPLC enzyme kinetics
AcpS [4] = target: T2, AcpS; test: HPLC enzyme kinetics

T2 sequence (P24224 2-126): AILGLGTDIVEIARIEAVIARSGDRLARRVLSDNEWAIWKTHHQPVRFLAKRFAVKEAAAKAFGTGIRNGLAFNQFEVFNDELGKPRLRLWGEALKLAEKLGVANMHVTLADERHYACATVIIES
T1 sequence (P39135 whole entry): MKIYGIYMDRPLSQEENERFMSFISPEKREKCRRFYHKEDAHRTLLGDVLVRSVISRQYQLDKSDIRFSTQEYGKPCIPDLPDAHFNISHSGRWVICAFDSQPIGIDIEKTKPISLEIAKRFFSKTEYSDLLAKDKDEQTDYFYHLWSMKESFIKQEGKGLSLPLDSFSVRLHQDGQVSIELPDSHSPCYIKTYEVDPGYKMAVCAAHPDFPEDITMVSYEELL

Molecule	IC50 (Sfp [1]) [µM]	IC50 (AcpS [2]) [µM]	Km (Sfp [3]) [µM]	Km (AcpS [4]) [µM]
Nc1ncnc2c1ncn2[C@@H]1O[C@H](COP(=O)(O)O)[C@@H](OP(=O)(O)O)[C@H]1O [compound 3, 3’-phosphoadenosine-5’-phosphate]	12.3 ± 1.1	92 ± 6		
TAMRA-mCoA [compound 12]			6	22

Source: publication PMC2761036 (Analytical biochemistry, 2009)
